Data set [1] has as its system seventy-eight protein channels. Nature of the data set: Eurofins SAFETYscan E/IC50 ELECT (all seventy-eight assays). Particulars: CTP 0.1 µM to 30 µM. Here is the method: Eurofins Toxicology Study: In vitro toxicology studies were performed by Eurofins Scientific through both their Ion Channel Profiler and Cardiac Profiler Panel and their DiscoverX’s SAFETYscan E/IC50 […] service. Increasing concentrations of CTP (0.1 µM to 30 µM) were tested against various ion channels and a total of seventy-eight assays performed utilizing various output reads, including GPCR cAMP modulation assays, calcium mobilization assays, nuclear hormone receptor assays, KINOMEscan binding assays, ion channel assays, transporter assays, and enzymatic assays. All methods described below were performed, described, and reported by Eurofins Scientific in their study report (Supplementary Methods S1 and S2).
GPCR cAMP modulation assays, calcium mobilization assays, nuclear hormone receptor assays, KINOMEscan binding assays, ion channel assays, transporter assays, and enzymatic assays were performed by Eurofins under GLP standards.
DiscoverX was contracted by Maliha Zahid at Mayo Clinic to profile 1 compound(s) with the SAFETYscan E/IC50 ELECT service. Details are
Product: SAFETYscan E/IC50 ELECT
ADOR A2A- Calci um Flux-Agonist DRD2S-cAMP-Agonist HTR3A-Ion Channel-Blocker
ADORA2A-Calcium Flux-Antagonist DRD2S-cAMP-Antagonist HTR3A-Ion Channel-Opener
ADRA1A-Calcium Flux-Agonist EDNRA-Calcium Flux-Agonist KvLQT1/minK-Ion Channel-Blocker […]

Data set [2] deals with CAV1.2 (Homo sapiens, UniProt Q13936). Nature of the data set: in vitro. The class given is cell-based. The following applies: blocker; FLIPR Tetra; up to 30 µM; read-out: RC50 (the source's name). Here is the method: Ion Channel Assays: Cell lines were grown, plated, and loaded with 1× loading buffer containing 1× dye and 2.5 mM freshly prepared probenecid. Assays were performed, and activity was measured using a FLIPR Tetra. Percent of activation and percent of inhibition were calculated to determine agonist and antagonist activity, respectively. […]
Sequence of CAV1.2 (Q13936 whole entry): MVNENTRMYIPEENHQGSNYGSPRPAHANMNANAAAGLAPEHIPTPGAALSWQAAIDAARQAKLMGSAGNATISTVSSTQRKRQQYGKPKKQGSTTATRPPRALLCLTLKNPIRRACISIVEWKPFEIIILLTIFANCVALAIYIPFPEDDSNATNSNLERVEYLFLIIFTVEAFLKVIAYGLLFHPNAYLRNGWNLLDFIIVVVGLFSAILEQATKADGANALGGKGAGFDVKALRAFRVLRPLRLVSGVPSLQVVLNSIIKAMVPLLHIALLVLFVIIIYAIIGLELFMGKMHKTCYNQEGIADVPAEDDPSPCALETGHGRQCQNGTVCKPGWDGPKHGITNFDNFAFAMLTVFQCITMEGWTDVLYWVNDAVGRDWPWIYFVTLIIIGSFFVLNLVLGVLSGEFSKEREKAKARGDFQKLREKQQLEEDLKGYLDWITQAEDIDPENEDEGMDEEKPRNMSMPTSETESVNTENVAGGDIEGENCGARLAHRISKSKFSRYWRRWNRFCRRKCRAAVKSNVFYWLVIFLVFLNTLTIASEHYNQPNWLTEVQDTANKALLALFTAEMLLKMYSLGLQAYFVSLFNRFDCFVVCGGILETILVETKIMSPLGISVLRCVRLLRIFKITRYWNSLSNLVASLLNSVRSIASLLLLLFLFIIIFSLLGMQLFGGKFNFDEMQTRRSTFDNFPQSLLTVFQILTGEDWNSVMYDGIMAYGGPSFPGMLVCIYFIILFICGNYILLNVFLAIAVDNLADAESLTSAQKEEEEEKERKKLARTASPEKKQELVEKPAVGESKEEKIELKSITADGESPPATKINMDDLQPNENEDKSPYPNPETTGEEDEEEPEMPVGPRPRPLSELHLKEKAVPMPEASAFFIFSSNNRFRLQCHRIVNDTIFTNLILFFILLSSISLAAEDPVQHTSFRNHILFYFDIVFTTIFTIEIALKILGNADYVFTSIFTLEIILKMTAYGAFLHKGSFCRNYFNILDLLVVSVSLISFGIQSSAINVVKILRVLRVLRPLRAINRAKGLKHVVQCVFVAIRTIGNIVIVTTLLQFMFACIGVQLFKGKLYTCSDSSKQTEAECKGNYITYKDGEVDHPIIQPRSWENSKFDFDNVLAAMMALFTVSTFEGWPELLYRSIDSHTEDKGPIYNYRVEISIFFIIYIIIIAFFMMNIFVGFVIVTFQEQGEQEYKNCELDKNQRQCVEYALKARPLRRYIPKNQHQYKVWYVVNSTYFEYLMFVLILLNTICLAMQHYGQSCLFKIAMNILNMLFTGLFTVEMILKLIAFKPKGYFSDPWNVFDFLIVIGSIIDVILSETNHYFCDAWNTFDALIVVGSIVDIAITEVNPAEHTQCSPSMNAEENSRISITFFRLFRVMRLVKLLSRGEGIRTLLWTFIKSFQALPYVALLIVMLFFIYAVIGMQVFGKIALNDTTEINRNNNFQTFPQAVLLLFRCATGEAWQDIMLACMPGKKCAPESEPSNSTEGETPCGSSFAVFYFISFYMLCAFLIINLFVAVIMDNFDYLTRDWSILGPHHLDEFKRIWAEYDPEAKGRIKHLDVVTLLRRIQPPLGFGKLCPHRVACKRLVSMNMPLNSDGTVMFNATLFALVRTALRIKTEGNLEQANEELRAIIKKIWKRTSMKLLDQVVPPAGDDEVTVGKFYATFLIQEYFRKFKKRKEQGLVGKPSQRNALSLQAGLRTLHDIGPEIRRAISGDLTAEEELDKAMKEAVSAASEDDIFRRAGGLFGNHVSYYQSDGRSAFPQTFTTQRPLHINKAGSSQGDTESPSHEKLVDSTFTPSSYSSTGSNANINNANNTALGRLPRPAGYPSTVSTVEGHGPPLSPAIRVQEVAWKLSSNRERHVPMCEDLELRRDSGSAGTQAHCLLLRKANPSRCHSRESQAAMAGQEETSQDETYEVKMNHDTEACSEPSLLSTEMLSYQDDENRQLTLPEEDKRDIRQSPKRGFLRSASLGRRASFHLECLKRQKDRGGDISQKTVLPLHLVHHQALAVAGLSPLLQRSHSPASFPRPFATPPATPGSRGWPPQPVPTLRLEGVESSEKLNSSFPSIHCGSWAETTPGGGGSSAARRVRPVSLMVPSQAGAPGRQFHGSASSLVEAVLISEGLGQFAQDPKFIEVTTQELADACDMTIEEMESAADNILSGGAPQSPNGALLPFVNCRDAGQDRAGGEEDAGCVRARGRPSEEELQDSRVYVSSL
Sequence of CAV1.2 (Q08289 whole entry partner): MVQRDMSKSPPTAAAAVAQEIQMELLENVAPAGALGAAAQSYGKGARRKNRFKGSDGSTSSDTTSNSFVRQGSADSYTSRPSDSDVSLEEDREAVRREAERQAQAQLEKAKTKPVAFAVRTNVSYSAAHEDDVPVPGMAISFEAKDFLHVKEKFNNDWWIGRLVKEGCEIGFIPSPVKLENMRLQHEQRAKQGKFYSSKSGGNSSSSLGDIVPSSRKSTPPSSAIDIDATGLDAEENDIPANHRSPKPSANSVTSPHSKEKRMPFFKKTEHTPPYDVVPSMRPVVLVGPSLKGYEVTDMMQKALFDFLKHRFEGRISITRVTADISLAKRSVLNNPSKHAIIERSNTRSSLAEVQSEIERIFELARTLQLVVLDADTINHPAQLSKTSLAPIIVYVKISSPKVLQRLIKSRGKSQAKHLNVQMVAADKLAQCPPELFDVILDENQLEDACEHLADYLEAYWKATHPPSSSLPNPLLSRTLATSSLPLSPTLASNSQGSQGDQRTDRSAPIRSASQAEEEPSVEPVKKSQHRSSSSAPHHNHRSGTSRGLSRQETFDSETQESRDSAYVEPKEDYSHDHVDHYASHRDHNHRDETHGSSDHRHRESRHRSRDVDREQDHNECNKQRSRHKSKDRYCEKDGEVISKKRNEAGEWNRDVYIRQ
Sequence of CAV1.2 (P54289 25-956 partner limits assumed): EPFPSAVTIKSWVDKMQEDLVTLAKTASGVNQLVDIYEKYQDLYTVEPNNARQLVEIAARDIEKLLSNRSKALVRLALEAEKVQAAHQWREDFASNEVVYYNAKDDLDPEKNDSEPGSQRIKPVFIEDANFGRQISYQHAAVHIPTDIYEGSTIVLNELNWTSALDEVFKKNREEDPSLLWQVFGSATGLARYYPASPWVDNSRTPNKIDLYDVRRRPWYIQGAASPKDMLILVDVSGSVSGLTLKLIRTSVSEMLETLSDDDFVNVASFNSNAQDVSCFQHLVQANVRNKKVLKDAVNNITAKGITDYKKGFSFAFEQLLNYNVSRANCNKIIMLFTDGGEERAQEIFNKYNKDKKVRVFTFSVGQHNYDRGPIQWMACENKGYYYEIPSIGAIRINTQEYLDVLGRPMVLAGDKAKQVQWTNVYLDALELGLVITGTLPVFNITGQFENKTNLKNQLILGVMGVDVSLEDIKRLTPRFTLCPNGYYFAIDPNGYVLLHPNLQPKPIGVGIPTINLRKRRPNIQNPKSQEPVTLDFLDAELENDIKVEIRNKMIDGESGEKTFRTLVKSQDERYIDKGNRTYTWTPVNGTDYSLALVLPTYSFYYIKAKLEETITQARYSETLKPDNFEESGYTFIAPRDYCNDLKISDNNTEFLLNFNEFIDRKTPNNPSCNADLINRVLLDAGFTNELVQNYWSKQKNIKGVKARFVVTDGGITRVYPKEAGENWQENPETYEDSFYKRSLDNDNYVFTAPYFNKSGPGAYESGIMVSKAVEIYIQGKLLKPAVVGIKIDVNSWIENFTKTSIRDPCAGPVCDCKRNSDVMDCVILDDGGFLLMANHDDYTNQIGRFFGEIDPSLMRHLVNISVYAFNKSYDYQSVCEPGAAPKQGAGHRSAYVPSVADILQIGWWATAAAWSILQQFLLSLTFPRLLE
Sequence of CAV1.2 (P54289 957-1103 partner limits assumed): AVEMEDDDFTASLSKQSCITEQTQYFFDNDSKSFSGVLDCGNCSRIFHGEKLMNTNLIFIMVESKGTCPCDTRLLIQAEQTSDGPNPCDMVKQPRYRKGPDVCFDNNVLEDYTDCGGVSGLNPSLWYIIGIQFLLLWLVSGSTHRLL
The KINOMEscan screening platform employs a novel and propri- Membrane Potential Assay etary active site-directed competition binding assay to quantitatively The FLIPR® Membrane Potential Assay Kit is used which utilizes a pro-measure interactions between test compounds and the kinases. prietary fluorescent indicator dye in combination with a quencher to This robust and reliable assay technology affords investigators the reflect real-time membrane potential changes associated with ion ability to extensively annotate compounds with accurate, precise channel activation and ion transporter proteins. […]
Compounds that bind the kinase active site and directly (sterically) be monitored within a single experiment. […]
a quantitative, precise and ultra-sensitive qPCR method that detects the receptor signals release of intracellular calcium, which results in the associated DNA label (D). In a similar manner, dissociation con- an increase of dye fluorescence. […]
Neurotransmitter Transporter Uptake Assay spectrophotometric, fluorometric, and luminescent readouts. […]

“Also recorded” adds a separate entry of the source. Ends that are not written are not given here.

As to APWHLSSQYSRT [CTP], the “significant interactions across all seventy-eight assays” value in data set [1] was “No significant activation or inhibition of any of seventy-eight protein channels was observed other than OPRM1 and COX2 at the highest tested concentration; also recorded: only two showed significant interactions”. For the same sequence, the IC50 in data set [2] was greater than 30 µM.

The values above are taken from article PMC10818749, “Toxicity Studies of Cardiac-Targeting Peptide Reveal a Robust Safety Profile” (Pharmaceutics, 2024).
